Some results are limits rather than exact numbers.

The target of one experiment is T1, Kv1.3 potassium channel (Homo sapiens, UniProt P22001).
T1 construct: expressed in transfected cells
T1 sequence (P22001 whole entry): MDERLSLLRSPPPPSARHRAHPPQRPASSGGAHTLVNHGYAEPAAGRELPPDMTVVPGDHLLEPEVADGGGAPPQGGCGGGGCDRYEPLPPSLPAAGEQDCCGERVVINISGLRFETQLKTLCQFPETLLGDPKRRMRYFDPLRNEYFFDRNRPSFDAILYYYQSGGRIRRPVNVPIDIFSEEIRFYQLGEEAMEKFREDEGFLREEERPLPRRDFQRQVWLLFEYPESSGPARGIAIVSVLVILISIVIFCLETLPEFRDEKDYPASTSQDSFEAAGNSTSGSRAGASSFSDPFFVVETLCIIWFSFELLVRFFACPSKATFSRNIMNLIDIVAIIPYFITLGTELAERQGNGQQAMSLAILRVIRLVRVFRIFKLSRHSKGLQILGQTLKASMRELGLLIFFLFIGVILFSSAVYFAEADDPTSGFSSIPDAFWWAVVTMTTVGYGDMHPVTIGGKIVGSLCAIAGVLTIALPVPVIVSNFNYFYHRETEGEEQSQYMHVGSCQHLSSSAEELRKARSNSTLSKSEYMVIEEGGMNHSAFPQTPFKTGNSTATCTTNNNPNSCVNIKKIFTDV
As to the kind of experiment: Kv1.3 potassium channel blocker activity, automated whole-cell patch clamp (Patchliner). The format is cell-based. The settings on record: Table 6; CHO-K1 cells stably expressing Kv1.3; whole cell current, pulses -90 mV to +40 mV; read-out: Kv1.3_IC50. Here is the method: Example 67. Evaluation of Kv1.3 Potassium Channel Blocker Activities
The assay described below is used to evaluate the disclosed compound's activities as Kv1.3 potassium channel blockers.
CHO-K1 cells stably expressing Kv1.3 were grown in DMEM containing 10% heat-inactivated FBS, 1 mM Sodium Pyruvate, 2 mM L-Glutamine and G418 (500 μg/ml). Cells were grown in culture flasks at 37° C. in a 5% CO2-humidified incubator.
The cells were bathed in an extracellular solution containing 140 mM NaCl, 4 mM KCl, 2 mM CaCl2), 1 mM MgCl2, 5 mM Glucose, 10 mM HEPES; pH adjusted to 7.4 with NaOH; 295-305 mOsm. The internal solution contained 50 mM KCl, 10 mM NaCl, 60 mM KF, 20 mM EGTA, 10 mM HEPES; pH adjusted to 7.2 with KOH; 285 mOsm. All compounds were dissolved in DMSO at 30 mM. Compound stock solutions were freshly diluted with external solution to concentrations of 30 nM, 100 nM, 300 nM, 1 μM, 3 μM, 10 μM, 30 μM and 100 μM. The highest content of DMSO (0.3%) was present in 100 μM.
The currents were evoked by applying 100 ms depolarizing pulses from −90 mV (holding potential) to +40 mV were applied with 0.1 Hz frequency. Control (compound-free) and compound pulse trains for each compound concentration applied contained 20 pulses. 10 second breaks were used between pulse trains (see Table 4 below).
Whole cell current recordings and compound application were enabled by means of an automated patch clamp platform Patchliner (Nanion Technologies GmbH). EPC 10 patch clamp amplifier (HIEKA Elektronik Dr. Schulze GmbH) along with Patchmaster software (HIEKA Elektronik Dr. Schulze GmbH) was used for data acquisition. Data were sampled at 10 kHz without filtering. Passive leak currents were subtracted online using a P/4 procedure (HEKA Elektronik Dr. Schulze GmbH). Increasing compound concentrations were applied consecutively to the same cell without washouts in between. Total compound incubation time before the next pulse train was not longer than 10 seconds. Peak current inhibition was observed during compound equilibration.
AUC and peak values were obtained with Patchmaster (HEKA Elektronik Dr. Schulze GmbH). To determine IC50, the last single pulse in the pulse train corresponding to a given compound concentration was used. Obtained AUC and peak values in the presence of compound were normalized to control values in the absence of compound. Using Origin (OridinLab), IC50 was derived from data fit to Hill equation: Icompound/Icontrol=(100−A)/(1+([compound]/IC50)nH)+A, where IC50 value is the concentration at which current inhibition is half-maximal, [compound] is the applied compound concentration, A is the fraction of current that is not blocked and nH is the Hill coefficient.
(In general: Patch clamp records ionic current or voltage across a cell membrane.)
As for `COCC(=O)NC(c1ccncc1)c1c(O)ccc(Cl)c1Cl` (centres unmarked) [Compound 63, N-[(2,3-dichloro-6-hydroxyphenyl)(pyridin-4-yl)methyl]-2-methoxyacetamide], the IC50 was under 10 µM.

With `O=C(N[C@@H](c1ccncc1)c1c(O)ccc(Cl)c1Cl)[C@H]1CCCN1` (single isomer, unassigned) [Compound 67], the IC50 is under 10 µM.

Turning to `Oc1ccc(Cl)c(Cl)c1C(O)c1cnccn1` (centres unmarked) [Compound 54, 3,4-dichloro-2-[hydroxy(pyrazin-2-yl)methyl]phenol], the IC50 is under 10 µM.

With `Nc1ccc(C(N)c2c(O)ccc(Cl)c2Cl)cn1` (centres unmarked) [Compound 14, 2-[amino(6-aminopyridin-3-yl)methyl]-3,4-dichlorophenol], the IC50 was under 10 µM.

Take `O=C(NC(c1ccncc1)c1c(O)ccc(Cl)c1Cl)C1CNC1` (single isomer, unassigned) [Compound 49, N-[(2,3-dichloro-6-hydroxyphenyl)(pyridin-4-yl)methyl]azetidine-3-carboxamide]: the IC50 is under 10 µM.

Take `COc1ccc(Cl)c(Cl)c1C(N)c1ccncc1` (centres unmarked) [Compound 70, 1-(2,3-dichloro-6-methoxyphenyl)-1-(pyridin-4-yl)methanamine]: the IC50 was under 30 µM.

`CC(C)C(=O)NC(c1ccncc1)c1c(O)ccc(Cl)c1Cl` (centres unmarked) [Compound 69, N-[(2,3-dichloro-6-hydroxyphenyl)(pyridin-4-yl)methyl]-2-methylpropanamide]: the IC50 was under 30 µM.

Consider `CC(c1ccncc1)c1c(O)ccc(Cl)c1Cl` (centres unmarked) [Compound 25, 3,4-dichloro-2-[1-(pyridin-4-yl)ethyl]phenol], for which the IC50 was under 10 µM.

Turning to `Oc1ccc(Cl)c(Cl)c1C(O)c1c[nH]c2ccccc12` (centres unmarked) [Compound 59, 3,4-dichloro-2-[hydroxy(1H-indol-3-yl)methyl]phenol], the IC50 is under 30 µM.

`Nc1cc(C(O)c2c(O)ccc(Cl)c2Cl)ccn1` (single isomer, unassigned) [Compound 44, 2-[(2-aminopyridin-4-yl)(hydroxy)methyl]-3,4-dichlorophenol]: the IC50 was under 30 µM.

As for `NC(c1ccccc1)c1cc(Cl)c(Cl)cc1O` (centres unmarked) [Compound 5, 2-[amino(phenyl)methyl]-4,5-dichlorophenol], the IC50 was under 30 µM.

Turning to `Oc1ccc(Cl)c(Cl)c1C(O)c1ccnc(N2CCOCC2)c1` (centres unmarked) [Compound 58, 3,4-dichloro-2-[hydroxy[2-(morpholin-4-yl)pyridin-4-yl]methyl]phenol], the IC50 is under 10 µM.

For `Nc1ccc(Cl)c(Cl)c1C(=O)c1ccncc1` [Compound 62, 3,4-dichloro-2-(pyridine-4-carbonyl)aniline], the IC50 is under 10 µM.

With `Oc1ccc(Cl)c(Cl)c1C(O)c1cn[nH]c1` (centres unmarked) [Compound 56, 3,4-dichloro-2-[hydroxy(1H-pyrazol-4-yl)methyl]phenol], the IC50 is under 10 µM.

Consider `NC(=O)c1ccc(C(N)c2cc(Cl)c(Cl)cc2O)cc1` (centres unmarked) [Compound 13, 4-[amino(4,5-dichloro-2-hydroxyphenyl)methyl]benzamide], for which the IC50 is under 10 µM.

Regarding `Nc1ccc(C(N)c2cc(Cl)c(Cl)cc2O)cn1` (centres unmarked) [Compound 12, 2-[amino(6-aminopyridin-3-yl)methyl]-4,5-dichlorophenol], the IC50 is under 10 µM.

Take `Oc1ccc(Cl)c(Cl)c1C(O)c1ccncn1` (centres unmarked) [Compound 55, 3,4-dichloro-2-[hydroxy(pyrimidin-4-yl)methyl]phenol]: the IC50 is under 10 µM.

Regarding `CN1CC(C(=O)NC(c2ccncc2)c2c(O)ccc(Cl)c2Cl)C1` (single isomer, unassigned) [Compound 72, N-[(2,3-dichloro-6-hydroxyphenyl)(pyridin-4-yl)methyl]-1-methylazetidine-3-carboxamide], the IC50 was under 1 µM.

Take `CC(=O)NCc1cc(C(O)c2c(O)ccc(Cl)c2Cl)ccn1` (centres unmarked) [Compound 33, N-([4-[(2,3-dichloro-6-hydroxyphenyl)(hydroxy)methyl]pyridin-2-yl]methyl)acetamide]: the IC50 was under 10 µM.

`N#Cc1ccc(C(N)c2cc(Cl)c(Cl)cc2O)cc1` (centres unmarked) [Compound 16, 4-[amino(4,5-dichloro-2-hydroxyphenyl)methyl]benzonitrile]: the IC50 is under 10 µM.

As for `Cn1cc(C(O)c2c(O)ccc(Cl)c2Cl)ccc1=O` (centres unmarked) [Compound 60, 5-[(2,3-dichloro-6-hydroxyphenyl)(hydroxy)methyl]-1-methyl-1,2-dihydropyridin-2-one], the IC50 is under 1 µM.

For the compound `N#Cc1cc(C(O)c2c(O)ccc(Cl)c2Cl)ccn1` (centres unmarked) [Compound 30, 4-[(2,3-dichloro-6-hydroxyphenyl)(hydroxy)methyl]pyridine-2-carbonitrile], the IC50 was under 10 µM.

For `O=C(c1ccncc1)c1c(O)ccc(Cl)c1Cl` [Compound 61, 3,4-dichloro-2-(pyridine-4-carbonyl)phenol], the IC50 is under 10 µM.

For `CN1CC(C(=O)NC(c2ccncc2)c2c(O)ccc(Cl)c2Cl)C1` (single isomer, unassigned) [Compound 75, N-[(2,3-dichloro-6-hydroxyphenyl)(pyridin-4-yl)methyl]-1-methylazetidine-3-carboxamide], the IC50 is under 10 µM.

For `Cc1cc(C(O)c2c(O)ccc(Cl)c2Cl)ccn1` (centres unmarked) [Compound 35, 3,4-dichloro-2-[hydroxy(2-methylpyridin-4-yl)methyl]phenol], the IC50 was under 10 µM.

`Oc1ccc(Cl)c(Cl)c1C(O)c1cccc2[nH]ccc12` (centres unmarked) [Compound 51, 3,4-dichloro-2-[hydroxy(1H-indol-4-yl)methyl]phenol]: the IC50 was under 10 µM.

As for `NCc1cc(C(O)c2c(O)ccc(Cl)c2Cl)ccn1` (single isomer, unassigned) [Compound 47, 2-((2-(aminomethyl)pyridin-4-yl)(hydroxy)methyl)-3,4-dichlorophenol], the IC50 was under 30 µM.

As for `NC(c1cn[nH]c1)c1cc(Cl)c(Cl)cc1O` (centres unmarked) [Compound 10, 2-[amino(1H-pyrazol-4-yl)methyl]-4,5-dichlorophenol], the IC50 is under 10 µM.

Staying with this experiment, now noted: Table 7; CHO-K1 cells stably expressing Kv1.3; whole cell current, pulses -90 mV to +40 mV; read-out: Kv1.3_IC50.
For the compound `C[C@@H](NC(=O)[C@@H]1CCCNC1)c1c(O)ccc(Cl)c1Cl` [Compound 79, (3R)-N-[(1R)-1-(2,3-dichloro-6-hydroxyphenyl)ethyl]piperidine-3-carboxamide], the IC50 is under 10 µM.

On to `C[C@H](NC(=O)C1(O)CNC1)c1c(O)ccc(Cl)c1Cl` [Compound 87], for which the IC50 was under 10 µM.

With `C[C@H](NC(=O)[C@H](O)CO)c1c(O)ccc(Cl)c1Cl` [Compound 84, (2R)-N-[(1S)-1-(2,3-dichloro-6-hydroxyphenyl)ethyl]-2,3-dihydroxypropan-amide], the IC50 was under 10 µM.

On to `C[C@H](NC(=O)C1CN(C(=O)CO)C1)c1c(O)ccc(Cl)c1Cl` [Compound 88, N-[(1S)-1-(2,3-dichloro-6-hydroxyphenyl)ethyl]-1-(2-hydroxyacetyl) azetidine-3-carboxamide], for which the IC50 was under 10 µM.

On to `CC(NC(=O)C1CNCCO1)c1c(O)ccc(Cl)c1Cl` (centres unmarked) [Compound 92, N-[1-(2,3-dichloro-6-hydroxyphenyl)ethyl]morpholine-2-carboxamide], for which the IC50 was under 10 µM.

With `C[C@H](NC(=O)[C@@H](O)CO)c1c(O)ccc(Cl)c1Cl` [Compound 85, (2S)-N-[(1S)-1-(2,3-dichloro-6-hydroxyphenyl)ethyl]-2,3-dihydroxypropan-amide], the concentration for half-maximal inhibition (IC50) was under 10 µM.

Take `Cc1cc(O)c(C(N)CC(=O)NC2CNC2)cc1Cl` (centres unmarked) [Compound 97, 3-amino-N-(azetidin-3-yl)-3-(5-chloro-2-hydroxy-4-methylphenyl)propenamide]: the IC50 is under 1 µM.

On to `Cc1cc(O)c([C@@H](N)CNC(=O)C2CNC2)cc1Cl` [Compound 95, N-[(2R)-2-amino-2-(5-chloro-2-hydroxy-4-methylphenyl)ethyl] azetidine-3-carboxamide], for which the IC50 is under 10 µM.

As to `C[C@H](NC(=O)C1CCNCC1)c1c(O)ccc(Cl)c1Cl` [Compound 90, N-[(1S)-1-(2,3-dichloro-6-hydroxyphenyl)ethyl]piperidine-4-carboxamide], the IC50 is under 1 µM.

As for `C[C@H](NC(=O)CO)c1c(O)ccc(Cl)c1Cl` [Compound 83, N-[(1S)-1-(2,3-dichloro-6-hydroxyphenyl)ethyl]-2-hydroxyacetamide], the IC50 was under 10 µM.

The IC50 is the concentration that gives 50% inhibition.

Source of the values: US20230131535A1, “ARYLMETHYLENE AROMATIC COMPOUNDS AS Kv1.3 POTASSIUM SHAKER CHANNEL BLOCKERS” (D. E. Shaw Research, LLC, priority 2019, published 2023).
